# From ChEMBL document CHEMBL5154747, “Discovery of new carbonic anhydrase IX inhibitors as anticancer agents by toning the hydrophobic and hydrophilic rims of the active site to encounter the dual-tail approach” (Eur J Med Chem, 2022)
# Columns and labels:
# Assay type in all cases: functional
# TK-10 [1] = test: Anticancer activity against human TK-10 cells assessed as cell growth inhibition incubated for 48 hrs by SRB assay; settings: for CC50: read-out: LC50 (the source's name)
# SK-OV-3 = test: Anticancer activity against human SK-OV-3 cells assessed as cell growth inhibition incubated for 48 hrs by SRB assay
# UACC-62 = test: Anticancer activity against human UACC-62 cells assessed as cell growth inhibition at 10 uM incubated for 48 hrs by SRB assay relative to control; settings: read-out: GI
# SK-MEL-28 [2] = test: Anticancer activity against human SK-MEL-28 cells assessed as cell growth inhibition incubated for 48 hrs by SRB assay; settings: for CC50: read-out: LC50 (the source's name)
# SF-295 [3] = test: Anticancer activity against human SF-295 cells assessed as cell growth inhibition incubated for 48 hrs by SRB assay; settings: for CC50: read-out: LC50 (the source's name)
# SK-MEL-28 [4] = test: Anticancer activity against human SK-MEL-28 cells assessed as cell growth inhibition at 10 uM incubated for 48 hrs by SRB assay relative to control; settings: read-out: GI
# MOLT-4 = test: Anticancer activity against human MOLT-4 cells assessed as cell growth inhibition at 10 uM incubated for 48 hrs by SRB assay relative to control; settings: read-out: GI
# MDA-MB-435 = test: Anticancer activity against human MDA-MB-435 cells assessed as cell growth inhibition incubated for 48 hrs by SRB assay
# ACHN = test: Anticancer activity against human ACHN cells assessed as cell growth inhibition incubated for 48 hrs by SRB assay; settings: for CC50: read-out: LC50 (the source's name)
# MDA-MB-468 = test: Anticancer activity against human MDA-MB-468 cells assessed as cell growth inhibition incubated for 48 hrs by SRB assay; settings: for CC50: read-out: LC50 (the source's name)
# HOP-62 = test: Anticancer activity against human HOP-62 cells assessed as cell growth inhibition at 10 uM incubated for 48 hrs by SRB assay relative to control; settings: read-out: GI
# SF-295 [5] = test: Anticancer activity against human SF-295 cells assessed as cell growth inhibition at 10 uM incubated for 48 hrs by SRB assay relative to control; settings: read-out: GI
# OVCAR-5 = test: Anticancer activity against human OVCAR-5 cells assessed as cell growth inhibition at 10 uM incubated for 48 hrs by SRB assay relative to control; settings: read-out: GI
# NCI-H322M = test: Anticancer activity against human NCI-H322M cells assessed as cell growth inhibition at 10 uM incubated for 48 hrs by SRB assay relative to control; settings: read-out: GI
# M14 = test: Anticancer activity against human M14 cells assessed as cell growth inhibition incubated for 48 hrs by SRB assay
# HL-60(TB) [6] = test: Anticancer activity against human HL-60(TB) cells assessed as cell growth inhibition incubated for 48 hrs by SRB assay; settings: for CC50: read-out: LC50 (the source's name)
# K562 = test: Anticancer activity against human K562 cells assessed as cell growth inhibition at 10 uM incubated for 48 hrs by SRB assay relative to control; settings: read-out: GI
# RXF 393 = test: Anticancer activity against human RXF 393 cells assessed as cell growth inhibition at 10 uM incubated for 48 hrs by SRB assay relative to control; settings: read-out: GI
# HCC 2998 = test: Anticancer activity against human HCC 2998 cells assessed as cell growth inhibition incubated for 48 hrs by SRB assay; settings: for CC50: read-out: LC50 (the source's name)
# BT-549 [7] = test: Anticancer activity against human BT-549 cells assessed as cell growth inhibition incubated for 48 hrs by SRB assay; settings: for CC50: read-out: LC50 (the source's name)
# RPMI-8226 = test: Anticancer activity against human RPMI-8226 cells assessed as cell growth inhibition incubated for 48 hrs by SRB assay
# U-251 = test: Anticancer activity against human U-251 cells assessed as cell growth inhibition at 10 uM incubated for 48 hrs by SRB assay relative to control; settings: read-out: GI
# HL-60(TB) [8] = test: Anticancer activity against human HL-60(TB) cells assessed as cell growth inhibition at 10 uM incubated for 48 hrs by SRB assay relative to control; settings: read-out: GI
# COLO 205 [9] = test: Anticancer activity against human COLO 205 cells assessed as cell growth inhibition at 10 uM incubated for 48 hrs by SRB assay relative to control; settings: read-out: GI
# EKVX = test: Anticancer activity against human EKVX cells assessed as cell growth inhibition at 10 uM incubated for 48 hrs by SRB assay relative to control; settings: read-out: GI
# DU-145 [10] = test: Anticancer activity against human DU-145 cells assessed as cell growth inhibition at 10 uM incubated for 48 hrs by SRB assay relative to control; settings: read-out: GI
# OVCAR-4 = test: Anticancer activity against human OVCAR-4 cells assessed as cell growth inhibition at 10 uM incubated for 48 hrs by SRB assay relative to control; settings: read-out: GI
# BT-549 [11] = test: Anticancer activity against human BT-549 cells assessed as cell growth inhibition at 10 uM incubated for 48 hrs by SRB assay relative to control; settings: read-out: GI
# OVCAR-3 = test: Anticancer activity against human OVCAR-3 cells assessed as cell growth inhibition incubated for 48 hrs by SRB assay
# IGROV-1 = test: Anticancer activity against human IGROV-1 cells assessed as cell growth inhibition incubated for 48 hrs by SRB assay; settings: for CC50: read-out: LC50 (the source's name)
# TK-10 [12] = test: Anticancer activity against human TK-10 cells assessed as cell growth inhibition at 10 uM incubated for 48 hrs by SRB assay relative to control; settings: read-out: GI
# PC-3 = test: Anticancer activity against human PC-3 cells assessed as cell growth inhibition incubated for 48 hrs by SRB assay; settings: for CC50: read-out: LC50 (the source's name)
# DU-145 [13] = test: Anticancer activity against human DU-145 cells assessed as cell growth inhibition incubated for 48 hrs by SRB assay
# SNB-19 = test: Anticancer activity against human SNB-19 cells assessed as cell growth inhibition at 10 uM incubated for 48 hrs by SRB assay relative to control; settings: read-out: GI
# MDA-MB-231 = test: Anticancer activity against human MDA-MB-231 cells assessed as cell growth inhibition incubated for 48 hrs by SRB assay
# 786-0 [14] = test: Anticancer activity against human 786-0 cells assessed as cell growth inhibition at 10 uM incubated for 48 hrs by SRB assay relative to control; settings: read-out: GI
# OVCAR-8 = test: Anticancer activity against human OVCAR-8 cells assessed as cell growth inhibition at 10 uM incubated for 48 hrs by SRB assay relative to control; settings: read-out: GI
# COLO 205 [15] = test: Anticancer activity against human COLO 205 cells assessed as cell growth inhibition incubated for 48 hrs by SRB assay; settings: for CC50: read-out: LC50 (the source's name)
# CAKI-1 = test: Anticancer activity against human CAKI-1 cells assessed as cell growth inhibition incubated for 48 hrs by SRB assay
# 786-0 [16] = test: Anticancer activity against human 786-0 cells assessed as cell growth inhibition incubated for 48 hrs by SRB assay
# [17] = read-out: LC50 (the source's name)
smiles,measurement,setting,value
NS(=O)(=O)c1ccc(Nc2nc(N/N=C/c3ccc(C(F)(F)F)cc3)nc(Nc3ccccc3)n2)cc1,GI50,TK-10 [1],3.45 µM
same,CC50,TK-10 [1],33.7 µM
same,GI50,SK-OV-3,3.66 µM
same,LC50,SK-OV-3,> 100 µM
same,inhibition of growth at 10 µM,UACC-62,85%
same,GI50,SK-MEL-28 [2],2.44 µM
same,CC50,SK-MEL-28 [2],26.3 µM
same,GI50,SF-295 [3],1.92 µM
same,CC50,SF-295 [3],8.63 µM
same,inhibition of growth at 10 µM,SK-MEL-28 [4],72%
same,inhibition of growth at 10 µM,MOLT-4,90%
same,GI50,MDA-MB-435,2.07 µM
same,LC50,MDA-MB-435,9.53 µM
same,GI50,ACHN,2.68 µM
same,CC50,ACHN,26.5 µM
same,GI50,MDA-MB-468,1.73 µM
same,CC50,MDA-MB-468,8.63 µM
same,inhibition of growth at 10 µM,HOP-62,61%
same,inhibition of growth at 10 µM,SF-295 [5],95%
same,inhibition of growth at 10 µM,OVCAR-5,32%
same,inhibition of growth at 10 µM,NCI-H322M,47%
same,GI50,M14,2.51 µM
same,CC50,M14; [17],63.3 µM
same,GI50,HL-60(TB) [6],3.59 µM
same,CC50,HL-60(TB) [6],> 100 µM
same,inhibition of growth at 10 µM,K562,82%
same,inhibition of growth at 10 µM,RXF 393,139%
same,GI50,HCC 2998,2.97 µM
same,CC50,HCC 2998,46.4 µM
same,GI50,BT-549 [7],2.79 µM
same,CC50,BT-549 [7],37.2 µM
same,GI50,RPMI-8226,2.77 µM
same,LC50 (concentration killing 50% of cells),RPMI-8226,> 100 µM
same,inhibition of growth at 10 µM,U-251,81%
same,inhibition of growth at 10 µM,HL-60(TB) [8],51%
same,inhibition of growth at 10 µM,COLO 205 [9],70%
same,inhibition of growth at 10 µM,EKVX,46%
same,inhibition of growth at 10 µM,DU-145 [10],60%
same,inhibition of growth at 10 µM,OVCAR-4,59%
same,inhibition of growth at 10 µM,BT-549 [11],51%
same,GI50,OVCAR-3,3.32 µM
same,LC50 (concentration killing 50% of cells),OVCAR-3,> 100 µM
same,GI50,IGROV-1,2.64 µM
same,CC50,IGROV-1,53.8 µM
same,inhibition of growth at 10 µM,TK-10 [12],35%
same,GI50,PC-3,2.8 µM
same,CC50,PC-3,78.5 µM
same,GI50,DU-145 [13],3.31 µM
same,LC50 (50% lethal concentration),DU-145 [13],36.7 µM
same,inhibition of growth at 10 µM,SNB-19,66%
same,GI50,MDA-MB-231,2.31 µM
same,LC50 (concentration killing 50% of cells),MDA-MB-231,33.7 µM
same,inhibition of growth at 10 µM,786-0 [14],103%
same,inhibition of growth at 10 µM,OVCAR-8,67%
same,GI50,COLO 205 [15],1.86 µM
same,CC50,COLO 205 [15],10.9 µM
same,GI50,CAKI-1,3.05 µM
same,CC50,CAKI-1; [17],51.9 µM
same,GI50,786-0 [16],2.22 µM
same,CC50,786-0 [16]; [17],33.7 µM
Cc1nn(-c2ccccc2)cc1/C=N/Nc1nc(Nc2ccccc2)nc(Nc2ccc(S(N)(=O)=O)cc2)n1,GI50,TK-10 [1],1.48 µM
same,CC50,TK-10 [1],8.25 µM
same,GI50,SK-OV-3,2.93 µM
same,LC50,SK-OV-3,> 100 µM
same,inhibition of growth at 10 µM,UACC-62,127%
same,GI50,SK-MEL-28 [2],1.8 µM
same,CC50,SK-MEL-28 [2],6.64 µM
same,CC50,SF-295 [3],> 100 µM
same,inhibition of growth at 10 µM,SK-MEL-28 [4],113%
same,inhibition of growth at 10 µM,MOLT-4,93%
same,GI50,MDA-MB-435,1.77 µM
same,LC50,MDA-MB-435,6.78 µM
same,GI50,ACHN,1.9 µM
same,CC50,ACHN,6.72 µM
same,GI50,MDA-MB-468,1.52 µM
same,CC50,MDA-MB-468,7.03 µM
same,inhibition of growth at 10 µM,HOP-62,90%
same,inhibition of growth at 10 µM,SF-295 [5],89%
same,inhibition of growth at 10 µM,OVCAR-5,113%
same,inhibition of growth at 10 µM,NCI-H322M,90%
same,GI50,M14,2.06 µM
same,GI50,HL-60(TB) [6],2.24 µM
same,CC50,HL-60(TB) [6],> 100 µM
same,inhibition of growth at 10 µM,K562,90%
same,inhibition of growth at 10 µM,RXF 393,120%
same,GI50,HCC 2998,1.88 µM
same,CC50,HCC 2998,7.01 µM
same,GI50,BT-549 [7],1.84 µM
same,CC50,BT-549 [7],> 100 µM
same,GI50,RPMI-8226,1.66 µM
same,LC50 (concentration killing 50% of cells),RPMI-8226,> 100 µM
same,inhibition of growth at 10 µM,U-251,122%
same,inhibition of growth at 10 µM,HL-60(TB) [8],96%
same,inhibition of growth at 10 µM,COLO 205 [9],122%
same,inhibition of growth at 10 µM,EKVX,81%
same,inhibition of growth at 10 µM,DU-145 [10],90%
same,inhibition of growth at 10 µM,OVCAR-4,85%
same,inhibition of growth at 10 µM,BT-549 [11],78%
same,GI50,OVCAR-3,3.18 µM
same,LC50 (concentration killing 50% of cells),OVCAR-3,> 100 µM
same,GI50,IGROV-1,2.59 µM
same,CC50,IGROV-1,> 100 µM
same,inhibition of growth at 10 µM,TK-10 [12],55%
same,GI50,PC-3,2.22 µM
same,CC50,PC-3,> 100 µM
same,GI50,DU-145 [13],3.06 µM
same,LC50 (50% lethal concentration),DU-145 [13],> 100 µM
same,inhibition of growth at 10 µM,SNB-19,92%
same,GI50,MDA-MB-231,3.11 µM
same,LC50 (concentration killing 50% of cells),MDA-MB-231,> 100 µM
same,inhibition of growth at 10 µM,786-0 [14],147%
same,inhibition of growth at 10 µM,OVCAR-8,81%
same,GI50,COLO 205 [15],2.47 µM
same,CC50,COLO 205 [15],> 100 µM
same,GI50,CAKI-1,2.01 µM
same,GI50,786-0 [16],2.13 µM
